Data on 16 compounds can be found in patent US20130035326A1 (AMBIT BIOSCIENCES CORPORATION, priority 2009, published 2013).

Broadly, the Kd is the concentration at which binding is half-saturated. The low end stands for a tighter complex, the high end for a looser complex. A word on the IC50: it is the concentration needed to halve the response being measured. Read a low IC50 as higher potency.

One assay has as its target T1, FLT3 kinase (Homo sapiens, UniProt P36888).
T1 construct: made in house; host or cells: T7 phage display or HEK-293 cells
T1 sequence (P36888 27-993): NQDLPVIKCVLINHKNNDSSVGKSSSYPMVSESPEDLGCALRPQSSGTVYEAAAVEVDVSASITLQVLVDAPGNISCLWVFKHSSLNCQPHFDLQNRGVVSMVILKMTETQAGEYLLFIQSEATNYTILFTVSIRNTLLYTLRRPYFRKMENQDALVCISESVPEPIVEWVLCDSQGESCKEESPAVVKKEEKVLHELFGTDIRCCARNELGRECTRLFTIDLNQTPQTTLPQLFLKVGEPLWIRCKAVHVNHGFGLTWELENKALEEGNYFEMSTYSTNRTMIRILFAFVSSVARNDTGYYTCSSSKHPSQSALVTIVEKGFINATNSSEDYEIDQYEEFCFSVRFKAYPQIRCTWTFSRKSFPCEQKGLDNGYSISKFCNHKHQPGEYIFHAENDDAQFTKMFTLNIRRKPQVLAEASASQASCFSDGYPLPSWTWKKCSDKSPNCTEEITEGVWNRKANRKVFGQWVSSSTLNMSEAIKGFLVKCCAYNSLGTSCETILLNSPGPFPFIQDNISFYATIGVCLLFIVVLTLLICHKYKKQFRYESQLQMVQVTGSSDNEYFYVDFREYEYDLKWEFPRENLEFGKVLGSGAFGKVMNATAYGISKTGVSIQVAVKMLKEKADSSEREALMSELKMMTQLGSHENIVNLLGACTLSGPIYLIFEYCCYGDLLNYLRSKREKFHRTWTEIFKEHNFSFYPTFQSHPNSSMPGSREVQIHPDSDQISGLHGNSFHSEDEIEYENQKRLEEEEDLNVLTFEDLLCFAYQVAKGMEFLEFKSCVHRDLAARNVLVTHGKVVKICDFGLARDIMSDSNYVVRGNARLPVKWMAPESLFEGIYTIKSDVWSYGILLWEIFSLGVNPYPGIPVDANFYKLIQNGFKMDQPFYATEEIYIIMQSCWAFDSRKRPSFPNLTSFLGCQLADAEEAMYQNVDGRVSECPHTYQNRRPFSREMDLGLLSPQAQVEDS
Put plainly: Competition binding assay, FLT3 Kd. The gist of the method: (§1)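 Readout: qPCR of kinase eluted from ligand-coated beads. T7 phage-fused or HEK-293-expressed DNA-tagged kinase, 1 h RT equilibration with compound; Kd from 11-pt 3-fold series.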

Another assay concerns MV4-11 cells. Put plainly: MV4-11 cell proliferation assay (Alamar Blue). The class given is cell-based. As to conditions: Homo sapiens, MV4-11, 72 h, 3 days incubation. The method, boiled down: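 Viability readout: Alamar Blue fluorescence, ex 560/em 590 nm, 3 h after reagent addition, after 3-day exposure of 64,000 MV4-11 cells per well to a 9-point half-log compound series in 0.5% FBS Iscove's. IC50 from duplicate averages, as 50% proliferation inhibition relative to negative control.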

A further assay has as its target T2, KIT kinase (Homo sapiens, UniProt P10721).
T2 construct: made in house; host or cells: T7 phage display or HEK-293 cells
Put plainly: Competition binding assay, KIT Kd. The method, boiled down: as §1

The target of assay [1] is kinase panel containing either 359 or 386 distinct kinases. The experiment in a line: Selectivity score S10 from competition binding against a panel of kinases. Conditions: compounds at 10 μM; panel of 386 distinct kinases. The gist of the method:
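Compounds were tested at 10 μM in competition binding against T7 phage-fused or HEK-293-expressed DNA-tagged kinases with immobilized affinity ligands, 1 h at room temperature. Bound kinase was quantified by qPCR as percent of DMSO control; S10 is the fraction of distinct kinases (mutants excluded) with POC below 10.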

The target of the next assay is T3, CSF-1R kinase (Homo sapiens, UniProt P07333).
T3 construct: made in house; host or cells: T7 phage display or HEK-293 cells
T3 sequence (P07333 20-972): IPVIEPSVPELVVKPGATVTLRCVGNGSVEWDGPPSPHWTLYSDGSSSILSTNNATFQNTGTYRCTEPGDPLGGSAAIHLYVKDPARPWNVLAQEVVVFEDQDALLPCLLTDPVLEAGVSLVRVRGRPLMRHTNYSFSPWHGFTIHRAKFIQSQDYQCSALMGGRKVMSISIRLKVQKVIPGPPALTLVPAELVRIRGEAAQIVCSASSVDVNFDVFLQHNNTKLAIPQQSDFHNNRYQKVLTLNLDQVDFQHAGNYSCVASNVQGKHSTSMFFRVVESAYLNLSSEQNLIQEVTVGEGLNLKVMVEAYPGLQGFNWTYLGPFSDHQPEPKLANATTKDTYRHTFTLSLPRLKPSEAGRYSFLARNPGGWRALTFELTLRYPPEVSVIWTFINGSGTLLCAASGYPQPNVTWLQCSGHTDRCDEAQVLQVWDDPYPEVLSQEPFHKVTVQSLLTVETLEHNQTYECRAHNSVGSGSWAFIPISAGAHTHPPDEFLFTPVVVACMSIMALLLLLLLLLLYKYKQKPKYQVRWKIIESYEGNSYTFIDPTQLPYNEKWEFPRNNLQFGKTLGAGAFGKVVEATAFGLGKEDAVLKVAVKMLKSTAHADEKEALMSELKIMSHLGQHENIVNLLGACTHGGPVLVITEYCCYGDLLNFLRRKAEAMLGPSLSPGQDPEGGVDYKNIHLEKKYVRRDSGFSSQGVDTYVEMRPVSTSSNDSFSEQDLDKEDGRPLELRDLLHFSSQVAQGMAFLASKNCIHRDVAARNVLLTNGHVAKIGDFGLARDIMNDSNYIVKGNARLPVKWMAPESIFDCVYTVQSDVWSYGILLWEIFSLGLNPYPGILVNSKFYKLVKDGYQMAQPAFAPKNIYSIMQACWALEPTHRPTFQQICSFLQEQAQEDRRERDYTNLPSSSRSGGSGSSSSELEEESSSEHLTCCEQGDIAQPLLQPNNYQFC
The experiment in a line: Competition binding assay, CSF-1R Kd. The method, boiled down:
as §1

T2 sequence (P10721 26-976): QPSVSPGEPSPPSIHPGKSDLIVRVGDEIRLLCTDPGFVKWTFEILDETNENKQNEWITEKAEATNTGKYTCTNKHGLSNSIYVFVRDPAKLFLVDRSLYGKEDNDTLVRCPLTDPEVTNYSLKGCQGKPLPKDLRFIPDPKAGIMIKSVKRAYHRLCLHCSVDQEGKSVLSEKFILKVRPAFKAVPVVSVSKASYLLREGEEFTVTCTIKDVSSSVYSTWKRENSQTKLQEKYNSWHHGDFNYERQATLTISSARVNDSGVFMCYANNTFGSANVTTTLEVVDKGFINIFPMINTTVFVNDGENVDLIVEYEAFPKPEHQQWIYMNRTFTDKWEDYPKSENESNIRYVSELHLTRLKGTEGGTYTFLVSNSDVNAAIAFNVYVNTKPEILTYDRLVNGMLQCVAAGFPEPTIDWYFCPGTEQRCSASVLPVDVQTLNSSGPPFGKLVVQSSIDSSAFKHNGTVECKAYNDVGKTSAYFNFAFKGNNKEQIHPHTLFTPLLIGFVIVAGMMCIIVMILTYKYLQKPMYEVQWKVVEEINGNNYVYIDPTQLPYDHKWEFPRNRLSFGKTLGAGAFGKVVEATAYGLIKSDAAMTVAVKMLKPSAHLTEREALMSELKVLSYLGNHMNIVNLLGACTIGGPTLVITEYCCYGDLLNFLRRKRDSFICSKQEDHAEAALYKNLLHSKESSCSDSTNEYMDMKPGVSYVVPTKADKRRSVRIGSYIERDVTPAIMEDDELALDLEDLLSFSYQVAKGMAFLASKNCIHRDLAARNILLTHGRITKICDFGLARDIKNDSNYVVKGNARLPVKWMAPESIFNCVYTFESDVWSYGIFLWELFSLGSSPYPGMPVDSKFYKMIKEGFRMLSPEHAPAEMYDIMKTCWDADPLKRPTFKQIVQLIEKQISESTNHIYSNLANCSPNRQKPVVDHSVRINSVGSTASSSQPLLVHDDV

Take `CC1(c2cc(NC(=O)Nc3ccc(-c4ccc(N)nc4)cc3)no2)CC1(F)F.CS(=O)(=O)O` (centres unmarked) [Example 112, 5-(4-(3-(5-(2,2-difluoro-1-methylcyclopropyl)isoxazol-3-yl)ureido)phenyl)pyridin-2-aminium methanesulfonate]: the Kd is no more than 0.001 µM at FLT3 kinase, 0.001 to 0.01 µM on KIT kinase and no more than 0.01 µM on CSF-1R kinase. Also, the IC50 with MV4-11 cells is 0.001 to 0.01 µM. The “Kinase specificty: S(10)-386 panel” value in assay [1] was “A (A≦0.1)”.

Regarding `CS(=O)(=O)O.Cc1nc(-c2ccc(CC(=O)Nc3cc(C(C)(C)C)on3)cc2)cnc1N` [Example 113, 5-(4-(2-(5-tert-butylisoxazol-3-ylamino)-2-oxoethyl)phenyl)-3-methylpyrazin-2-aminium methanesulfonate], the Kd on FLT3 kinase was no more than 0.001 µM; on KIT kinase, 0.001 to 0.01 µM; on CSF-1R kinase, no more than 0.01 µM. Besides, the IC50 in the assay with MV4-11 cells is no more than 0.001 µM. In addition, the “Kinase specificty: S(10)-386 panel” value in assay [1] is “B (0.1<B≦0.2 nM)”.

As for `CC(C)(C)c1cc(NC(=O)Cc2ccc(-c3cnc(N)c(Cl)c3)cc2)no1.CS(=O)(=O)O` [Example 115, 5-(4-(2-(5-tert-butylisoxazol-3-ylamino)-2-oxoethyl)phenyl)-3-chloropyridin-2-aminium methanesulfonate], the Kd was 0.001 to 0.01 µM on FLT3 kinase, 0.001 to 0.01 µM on KIT kinase and no more than 0.01 µM on CSF-1R kinase. In the assay with MV4-11 cells, this compound yielded an IC50 of no more than 0.001 µM. Moreover, the “Kinase specificty: S(10)-386 panel” value in assay [1] is “B (0.1<B≦0.2 nM)”.

Regarding `CC(C)(C)c1cc(NC(=O)Cc2ccc(-c3cnc(N)c(C(F)(F)F)c3)cc2)no1.CS(=O)(=O)O` [Example 116, 5-(4-(2-(5-tert-butylisoxazol-3-ylamino)-2-oxoethyl)phenyl)-3-(trifluoromethyl)pyridin-2-aminium methanesulfonate], the figures for the Kd at FLT3 kinase, on KIT kinase and at CSF-1R kinase were no more than 0.001 µM, 0.001 to 0.01 µM and no more than 0.01 µM, respectively. This compound also came in with an IC50 in the assay on MV4-11 cells of no more than 0.001 µM. For the same compound, the “Kinase specificty: S(10)-386 panel” value in assay [1] was “B (0.1<B≦0.2 nM)”.

In the case of `CN1C(C)(C)CC(=CCNc2ccc(-c3ccc(CC(=O)Nc4cc(C(C)(C)C)on4)cc3)cn2)CC1(C)C` [Example 117, N-(5-tert-butylisoxazol-3-yl)-2-(4-(6-(2-(1,2,2,6,6-pentamethylpiperidin-4-ylidene)ethylamino)pyridin-3-yl)phenyl)acetamide], the values for the Kd at FLT3 kinase, on KIT kinase and at CSF-1R kinase were no more than 0.001 µM, 0.001 to 0.01 µM and no more than 0.01 µM, respectively. This compound displayed a half-maximal inhibitory concentration (IC50) with MV4-11 cells of no more than 0.001 µM. In assay [1], the “Kinase specificty: S(10)-386 panel” value is “B (0.1<B≦0.2 nM)”.

Take `CC(C)(F)c1cc(NC(=O)Cc2ccc(-c3ccc(NCCN4CCOCC4)nc3)cc2)on1` [Example 118, N-(3-(2-fluoropropan-2-yl)isoxazol-5-yl)-2-(4-(6-(2-morpholinoethylamino)pyridin-3-yl)phenyl)acetamide]: the Kd at FLT3 kinase is no more than 0.001 µM; at KIT kinase, no more than 0.001 µM; on CSF-1R kinase, no more than 0.01 µM. Besides, the IC50 with MV4-11 cells is 0.01 to 0.1 µM. Further, the “Kinase specificty: S(10)-386 panel” value in assay [1] is “A (A≦0.1)”.

Turning to `CC(C)(C)c1cc(NC(=O)Cc2ccc(-c3ccc(N)nc3F)cc2)on1.CS(=O)(=O)O` [Example 119, 5-(4-(2-(3-tert-butylisoxazol-5-ylamino)-2-oxoethyl)phenyl)-6-fluoropyridin-2-aminium methanesulfonate], the Kd is no more than 0.001 µM at FLT3 kinase, 0.001 to 0.01 µM on KIT kinase and no more than 0.01 µM on CSF-1R kinase. Besides, the IC50 with MV4-11 cells is no more than 0.001 µM. For the same compound, the “Kinase specificty: S(10)-386 panel” value in assay [1] is given as “A (A≦0.1)”.

In the case of `CS(=O)(=O)O.Nc1ccc(-c2ccc(NC(=O)Nc3cc(C4(C(F)(F)F)CCC4)on3)cc2)cn1` [Example 121, 5-(4-(3-(5-(1-(trifluoromethyl)cyclobutyl)isoxazol-3-yl)ureido)phenyl)pyridin-2-aminium methanesulfonate], the Kd at FLT3 kinase fell in the range of 0.001 to 0.01 µM; on KIT kinase it was 0.001 to 0.01 µM; on CSF-1R kinase it was 0.01 to 0.1 µM. Further, the IC50 in the assay on MV4-11 cells is no more than 0.001 µM. In assay [1], the “Kinase specificty: S(10)-386 panel” value is listed as “A (A≦0.1)”.

`CC1(CCNc2ccc(-c3ccc(CC(=O)Nc4cc(C(C)(C)C)on4)cc3)cn2)COC1` [Example 122, N-(5-tert-butylisoxazol-3-yl)-2-(4-(6-(2-(3-methyloxetan-3-yl)ethylamino)pyridin-3-yl)phenyl)acetamide]: the Kd on FLT3 kinase was in the range of 0.001 to 0.01 µM; at KIT kinase, 0.01 to 0.1 µM; on CSF-1R kinase, 0.1 to 0.5 µM. In the assay with MV4-11 cells, the IC50 fell in the range of 0.01 to 0.1 µM. Further, the “Kinase specificty: S(10)-386 panel” value in assay [1] is given as “A (A≦0.1)”.

In the case of `CC(C)(C)c1cc(NC(=O)Cc2c(F)cc(-c3ccc(N)nc3)cc2F)no1.CS(=O)(=O)O` [Example 123, 5-(4-(2-(5-tert-butylisoxazol-3-ylamino)-2-oxoethyl)-3,5-difluorophenyl)pyridin-2-aminium methanesulfonate], the results for the Kd on FLT3 kinase, at KIT kinase and at CSF-1R kinase were no more than 0.001 µM, 0.001 to 0.01 µM and no more than 0.01 µM, respectively. Further, the IC50 in the assay with MV4-11 cells is no more than 0.001 µM. Moreover, the “Kinase specificty: S(10)-386 panel” value in assay [1] is “B (0.1<B≦0.2 nM)”.

For the compound `Nc1ccc(-c2ccc(CC(=O)Nc3cc(C4(C(F)(F)F)CCC4)on3)cc2)cn1` [Example 124, 2-(4-(6-aminopyridin-3-yl)phenyl)-N-(5-(1-(trifluoromethyl)cyclobutyl)isoxazol-3-yl)acetamide], the Kd on FLT3 kinase is no more than 0.001 µM; on KIT kinase, 0.001 to 0.01 µM; at CSF-1R kinase, no more than 0.01 µM. This compound also came in with an IC50 in the assay with MV4-11 cells of no more than 0.001 µM. Moreover, the “Kinase specificty: S(10)-386 panel” value in assay [1] is recorded as “B (0.1<B≦0.2 nM)”.

Turning to `CC(C)(C)c1cc(NC(=O)Cc2ccc(-c3ccc(N)nc3)c(F)c2)no1.CS(=O)(=O)O` [Example 125, 5-(4-(2-(5-tert-butylisoxazol-3-ylamino)-2-oxoethyl)-2-fluorophenyl)pyridin-2-aminium methanesulfonate], the Kd is no more than 0.001 µM on FLT3 kinase, no more than 0.001 µM at KIT kinase and no more than 0.01 µM on CSF-1R kinase. In the assay on MV4-11 cells, the IC50 is no more than 0.001 µM. The “Kinase specificty: S(10)-386 panel” value in assay [1] is given as “A (A≦0.1)”.

In the case of `CS(=O)(=O)O.Nc1ccc(-c2ccc(CC(=O)Nn3cc(C(F)(F)F)cn3)cc2)cn1` [Example 126, 5-(4-(2-oxo-2-(4-(trifluoromethyl)-1H-pyrazol-1-ylamino)ethyl)phenyl)pyridin-2-aminium methanesulfonate], the results for the Kd at FLT3 kinase, on KIT kinase and on CSF-1R kinase were no more than 0.001 µM, 0.001 to 0.01 µM and 0.01 to 0.1 µM, respectively. The compound also returned an IC50 with MV4-11 cells of 0.01 to 0.1 µM. Further, the “Kinase specificty: S(10)-386 panel” value in assay [1] is recorded as “A (A≦0.1)”.

Consider `CC1(c2cc(NC(=O)Cc3ccc(-c4cnc(N)c(Cl)c4)cc3)no2)COC1.CS(=O)(=O)O` [Example 128, 3-chloro-5-(4-(2-((5-(3-methyloxetan-3-yl)isoxazol-3-yl)amino)-2-oxoethyl)phenyl)pyridin-2-aminium methanesulfonate], for which the figures for the Kd at FLT3 kinase, on KIT kinase and on CSF-1R kinase were no more than 0.001 µM, 0.001 to 0.01 µM and no more than 0.01 µM, respectively. The compound further showed an IC50 with MV4-11 cells of 0.001 to 0.01 µM. For the same compound, the “Kinase specificty: S(10)-386 panel” value in assay [1] is “B (0.1<B≦0.2 nM)”.

Regarding `COc1nc(N)ccc1-c1ccc(CC(=O)Nc2cc(C(C)(C)C)on2)cc1.CS(=O)(=O)O` [Example 131, 5-(4-(2-(5-tert-butylisoxazol-3-ylamino)-2-oxoethyl)phenyl)-6-methoxypyridin-2-aminium methanesulfonate], the Kd at FLT3 kinase was 0.001 to 0.01 µM; at KIT kinase, 0.01 to 0.1 µM; at CSF-1R kinase, greater than 0.5 µM. The compound further showed an IC50 in the assay on MV4-11 cells of 0.1 to 0.5 µM. Moreover, the “Kinase specificty: S(10)-386 panel” value in assay [1] was “A (A≦0.1)”.

In the case of `CC(C)(C)c1cc(NC(=O)Cc2ccc(-c3ccc(N)nc3Cl)cc2)no1.CS(=O)(=O)O` [Example 132, 5-(4-(2-(5-tert-butylisoxazol-3-ylamino)-2-oxoethyl)phenyl)-6-chloropyridin-2-aminium methanesulfonate], the Kd on FLT3 kinase is no more than 0.001 µM; at KIT kinase it was 0.001 to 0.01 µM; on CSF-1R kinase, no more than 0.01 µM. This compound displayed an IC50 in the assay with MV4-11 cells of 0.001 to 0.01 µM. For the same compound, in assay [1], the “Kinase specificty: S(10)-386 panel” value is on record as “A (A≦0.1)”.
